Reference: PubChem BioAssay (NCI)
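Step 1: Grow cells in 96-well plates. Step 2: Expose to compound for 48 hours at 5 concentrations. Step 3: Interpolate endpoints linearly; if unreached, use highest concentration. The concentration for 50% growth inhibition is given as GI50. TGI marks complete inhibition of growth.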

Legend:
Test in all cases: NCI tumour cell line growth inhibition, 48 h
[1] = test system: SK-MEL-5 melanoma
[2] = test system: MDA-MB-231 breast
[3] = test system: EKVX NSCLC
[4] = test system: HOP-92 NSCLC
[5] = test system: TK-10 renal
[6] = test system: MCF7 breast
[7] = test system: OVCAR-5 ovarian
[8] = test system: HCC-2998 colon
[9] = test system: SNB-78 CNS
[10] = test system: HOP-18 NSCLC
[11] = test system: KM20L2 colon
[12] = test system: LXFL 529 NSCLC

Row | SMILES | TGI [1] [µM] | TGI [2] [µM] | TGI [3] [µM] | TGI [4] [µM] | TGI [5] [µM] | TGI [6] [µM] | TGI [7] [µM] | TGI [8] [µM] | TGI [9] [µM] | TGI [10] [µM] | TGI [11] [µM] | TGI [12] [µM] | GI50 [1] [µM] | GI50 [2] [µM] | GI50 [3] [µM] | GI50 [4] [µM] | GI50 [5] [µM] | GI50 [6] [µM] | GI50 [7] [µM] | GI50 [8] [µM]
1 | O=[N+]([O-])c1ccc(Cl)cc1C=NC12CC3CC(CC(C3)C1)C2 | > 100 | > 100 | > 100 | > 100 | > 100 | > 100 | > 100 | > 100 |  |  |  |  |  |  |  |  |  |  |  | 
2 | O=C(O)c1ccc(Nc2nc3ccccc3nc2C(=O)O)cc1 | > 100 | > 100 | > 100 | > 100 | > 100 | > 100 | > 100 | > 100 |  |  |  |  |  |  |  |  |  |  |  | 
3 | CC(=O)Nc1ccc(-c2nnc(SCC(=O)Nc3ccccc3C)o2)cc1 | > 100 |  |  | > 100 | > 100 |  | > 100 |  | > 100 | > 100 | > 100 | > 100 |  |  |  |  |  |  |  | 
4 | O=C(C#Cc1cn(C2CC(O)C(CO)O2)c(=O)[nH]c1=O)c1ccccc1 (stereo unspecified) | > 100 | > 100 | > 100 | 53.2 | > 100 | > 100 |  | > 100 |  |  |  |  |  |  |  |  |  |  |  | 
5 | COc1ccc2c(c1)CC[C@@H]1[C@@H]2CC[C@]2(C)C(=O)/C(=C/c3cc(OC)c(OC)c(OC)c3)C[C@@H]12 | > 100 | 42 | > 100 | 45.4 | 34.2 | > 100 | 62.4 | > 100 |  |  |  |  |  |  |  |  |  |  |  | 
6 | CN1CC2CC(C1)c1cccc(=O)n1C2 (stereo unspecified) | > 100 | > 100 | > 100 | > 100 | > 100 | > 100 | > 100 | > 100 |  |  |  |  |  |  |  |  |  |  |  | 
7 | COc1nc2[nH]ccc2c(=O)n1C | > 100 |  | > 100 | > 100 | > 100 |  | > 100 |  | > 100 | > 100 |  | > 100 |  |  |  |  |  |  |  | 
8 | CCOC(=O)N(C)C1(c2ccccc2)CCN(CCCC(=O)c2ccc(F)cc2)CC1 | 31.3 | > 100 | > 100 | 78.6 | > 100 | 85.2 | > 100 | 42.3 |  |  |  |  |  |  |  |  |  |  |  | 
9 | CC(=O)NC1=C(C)C(=O)c2c(nc3n2CC[C@H]3OC(C)=O)C1=O | 8.07 | 2.71 | 17.5 | 1.83 | 13.9 | 3.37 | 7.34 | 7.73 |  |  |  |  |  |  |  |  |  |  |  | 
10 | O=C(NN1C(=O)C=CC1=O)c1ccccc1Nc1ccccc1C(=O)NN1C(=O)C=CC1=O | > 100 | > 100 | > 100 | > 100 | > 100 | > 100 | > 100 | > 100 |  |  |  |  |  |  |  |  |  |  |  | 
11 | COc1cc(-c2nc3nc(N4CCN(C)CC4)ccc3[nH]2)c(OC)c2[nH]c(COC(C)=O)nc12 | 35.6 | 63.6 | > 100 | > 100 | > 100 | 43.9 | > 100 | 30.6 |  |  |  |  |  |  |  |  |  |  |  | 
12 | Nc1c(S(=O)(=O)O)cc(Nc2cccc(S(=O)(=O)/C=C/S(=O)(=O)O)c2)c2c1C(=O)c1ccccc1C2=O | > 100 | > 100 | > 100 | > 100 | > 100 | > 100 | > 100 | > 100 |  |  |  |  |  |  |  |  |  |  |  | 
13 | O=C1/C(=C/c2ccco2)NC(=S)N1CN1CCOCC1 | > 100 | > 100 | > 100 | > 100 | > 100 | > 100 | > 100 |  |  |  |  |  |  |  |  |  |  |  |  | 
14 | CC(C)(C)c1cc(C2COC(=O)COCC(=O)OCCOCCOCCO2)cc(C(C)(C)C)c1O (stereo unspecified) | > 100 | > 100 | > 100 | 59.3 | 43.7 | > 100 | > 100 | 27.9 |  |  |  |  |  |  |  |  |  |  |  | 
15 | COc1cc(C2S/C(=C/c3ccccc3)C(=O)N2c2cccc([N+](=O)[O-])c2)cc(OC)c1OC (stereo unspecified) | > 100 | > 100 | > 100 | > 100 | > 100 | > 100 | > 100 | > 100 |  |  |  |  |  |  |  |  |  |  |  | 
16 | CC(=O)NC1=CC(=O)c2cc(C)cc(O)c2C1=O | 2.65 | 24.7 | 31.7 | 22.7 | 45.9 | 7.8 | 26.1 | 5.69 |  |  |  |  |  |  |  |  |  |  |  | 
17 | CN(C)CCOC1(CC2CCCCC2)CCC(C(C)(C)C)CC1 (stereo unspecified) | 4.8 | 13.5 | 22 | 17.5 | 25.5 | 7.73 | 17.5 | 11.7 |  |  |  |  |  |  |  |  |  |  |  | 
18 | NC(=O)NCCCC(NC(=O)OCCCCCn1ccc(=O)[nH]c1=O)C(=O)O (stereo unspecified) |  | > 100 | > 100 | > 100 | > 100 | > 100 | > 100 | > 100 |  |  |  |  |  |  |  |  |  |  |  | 
19 | O=C(Nc1cccc(-n2ccc3c(NC(=O)c4ccccc4)nccc32)c1)c1cc(N2CCOCC2)cc(C(F)(F)F)c1 | 0.249 | 0.651 | > 100 | > 26.2 | > 95.5 | > 100 | > 100 | > 100 |  |  |  |  | 0.0671 | 0.245 | 0.802 | 0.3 | 0.435 | 0.0332 | 0.696 | 0.462
20 | Cc1cccc2c1C/C(=C\c1cccc(C)c1C(=O)O)C2=O | > 100 |  | > 100 | > 100 | > 100 | > 100 | > 100 | > 100 |  |  |  |  |  |  |  |  |  |  |  | 
21 | CC(C)(NC1=NCCO1)c1ccccc1 | > 100 | > 100 | > 100 | > 100 | > 100 | > 100 | > 100 | > 100 |  |  |  |  |  |  |  |  |  |  |  | 
22 | OCC(O)C(O)C(O)C(/C=N\Nc1ncnc2ccc(Br)cc12)=N/Nc1ncnc2ccc(Br)cc12 (stereo unspecified) | 18 | > 100 | > 100 | > 100 | > 100 | > 100 | > 100 |  |  |  |  |  |  |  |  |  |  |  |  | 
23 | CC1CCC2(CC1)N=C1CCC(C)CC1C1(CCC(C)CC1)N2 (stereo unspecified) | > 100 | > 100 |  | > 100 | > 100 | > 100 | > 100 | > 100 |  |  |  |  |  |  |  |  |  |  |  | 
